Assay results reported in patent US20250082633A1, “COMPOUNDS AND METHODS FOR MODULATING SPLICING” (REMIX THERAPEUTICS INC., priority 2021, published 2025).

Legend:
Target C [1] = assay: HiBit protein abundance assay, Target C; assay type: cell-based; conditions: Homo sapiens; K562 HiBiT-modified cells, 24 hours, luminescence
Procedure: Compounds described herein were used to screen for effects on quantitative protein abundance using a HiBit assay system (Promega). Quantitative protein abundance was determined by measuring the protein levels of HiBit-tagged protein targets expressed in cell culture via luminescence using the Nano-Glo HiBiT Lytic Detection System, which uses a split complementation assay format to reconstitute NanoBiT enzyme to generate a luminescent signal. A protein abundance assay was developed such that endogenous protein targets could be modified with the HiBiT peptide tag and their abundance could be assessed after compound treatment. Briefly, K562 cell lines containing a HiBiT-modification were treated with various compounds described herein (e.g., compounds of Formulas (I), (II), or (III)). After treatment for 24 hours, the protein abundance of a specific target was determined by measuring luminescence. • Promega Nano-Glo HiBiT Lytic Detection System (cat #N3030) • Corning 384-well TC-treated microplates (cat #3570) • Synthego Engineered Cells Knock-In Clones Cells were maintained in IMDM with 10% FBS. Before the assay, cells were diluted with phenolphthalein-free growth media (IMDM+1% FBS media) and were seeded in a 384-well plate at a density of 10000 cells/well (for each cell line listed in Table 6). Each compound was prepared as a 10-point 3-fold serial dilution in DMSO with the top dose at a final concentration of 10 μM in the well. Unmodified K562 cells were added at the previously specified density with DMSO to serve as an assay baseline and positive control (PC) and DMSO only with the respective modified cell lines was added to the negative control (NC) columns. Final DMSO concentration was kept at or below 0.25%. Treated cell plates were placed in an incubator at 37° C. with 5% CO2 for 24 hours. After 24 hours, 25 μL of Complete HiBit Lytic reagent was added to each well at room temperature (e.g. one plate requiring 10 mL Lytic Buffer, 100 μL LgBiT Protein, 200 μL Lytic Substrate), shaken for 5 minutes at 600 RPM, then left to sit for 10 minutes for signal to stabilize before reading on a Spark Cyto plate reader (Tecan) with a 500 ms measurement time. To determine compound effects on protein abundance of each target in Table 6, the percent response for each respective cell line was calculated at each compound concentration as follows: For the normalized response at each concentration, a four-parameter logistical regression was fit to the data and the response was interpolated at the 50% value to determine a concentration for protein abundance at 50% (IC50) the untreated control.

Target C [2] = assay: RT-qPCR splicing assay, gene panel, Target C canonical junction (CJ) mRNA; assay type: cell-based; conditions: Homo sapiens, read-out: Target C CJ IC50
Summary of the method: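 A673 (DMEM/10% FBS) or K562 (IMDM/10% FBS) cells were treated 24 h at 37 °C with an 11-point 3-fold dilution series, top final 10 uM, DMSO ≤0.25%. Lysates underwent one-step RT-qPCR for the canonical-junction isoform with GAPDH, GUSB or PPIA as housekeeper. ΔΔCt versus DMSO was converted to RQ (2^−ΔΔCt), then to percent response.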

[3] = decrease in CJ mRNA levels, larger panel of genes, Table 3

Compound	IC50 (Target C [1])	IC50 (Target C [2]; [3])	IC50 (Target C [2])
COc1cc(-c2cc(C)c3nc(C)cn3n2)cc2cn(C3CCNCC3)nc12 [Compound 155, 6-(7-methoxy-2-(piperidin-4-yl)-2H-indazol-5-yl)-2,8-dimethylimidazo [1,2-b]pyridazine]	0.1 to 1 µM	0.1 to 1 µM	–
Cn1cc2cc(-c3ccc4nn(C5CCNCC5)cc4c3)cc(F)c2n1 [Compound 105, 7-fluoro-2-methyl-5-[2-(4-piperidyl)indazol-5-yl]indazole]	0.1 to 1 µM	0.1 to 1 µM	–
Cc1cn2nc(-c3ccc4nn(C5CCNCC5)cc4n3)cc(C)c2n1 [Compound 138, 2,8-dimethyl-6-[2-(4-piperidyl)pyrazolo[4,3-b]pyridin-5-yl]imidazo[1,2-b]pyridazine]	0.1 to 1 µM	0.1 to 1 µM	–
Cc1ccc2nc(-c3cc(F)c4nn(C5CCNCC5)cc4c3)ccc2n1 [Compound 157, 2-[7-fluoro-2-(4-piperidyl)indazol-5-yl]-6-methyl-1,5-naphthyridine]	> 10 µM	> 10 µM	–
Cc1cn2nc(-c3cc(F)c4nn(C5CCNCC5F)cc4c3)cc(C)c2n1 (centres unmarked) [Compound 166, 6-[7-fluoro-2-(3-fluoro-4-piperidyl)indazol-5-yl]-2,8-dimethyl-imidazo [1,2-b]pyridazine]	0.1 to 1 µM	0.1 to 1 µM	–
Cn1cc2cc(-c3cc(F)c4nn(C5CCNCC5)nc4c3)cc(F)c2n1 [Compound 103, 4-fluoro-6-(7-fluoro-2-methyl-indazol-5-yl)-2-(4-piperidyl) benzotriazole]	0.1 to 1 µM	1 to 10 µM	–
COC1=C(C)C2N=C(C)OC2C=C1c1cc(F)c2nn(C3CCNCC3)cc2n1 (centres unmarked) [Compound 144]	1 to 10 µM	> 10 µM	–
Cc1cn2nc(-c3cc(F)c4nn(C5CCN(CCF)CC5)cc4c3)cc(C)c2n1 [Compound 152]	0.1 to 1 µM	0.1 to 1 µM	–
Cc1cn2cc(-c3cc(F)c4nn(C5CCNCC5)cc4c3)cc(F)c2n1 [Compound 129, 7-fluoro-5-(8-fluoro-2-methylimidazo[1,2-a]pyridin-6-yl)-2-(piperidin-4-yl)-2H-indazole]	< 0.1 µM	0.1 to 1 µM	–
Cc1c(O)c(-c2cc(F)c3nn(C4CCNCC4)cc3c2)cc2cn(C)nc12 [Compound 126, 5-[7-fluoro-2-(4-piperidyl)indazol-5-yl]-2,7-dimethyl-indazol-6-ol]	1 to 10 µM	1 to 10 µM	–
Cc1nc2c(C)cc(-c3cc(F)c4nn(C5CCNCC5)cc4c3)cc2o1 [Compound 137, 6-[7-fluoro-2-(4-piperidyl)indazol-5-yl]-2,4-dimethyl-1,3-benzoxazole]	< 0.1 µM	0.1 to 1 µM	–
Cc1cn2nc(-c3cc(F)c4nn(C5CCN(CCO)CC5)cc4c3)cc(C)c2n1 [Compound 160, 2-[4-[5-(2,8-dimethylimidazo[1,2-b]pyridazin-6-yl)-7-fluoro-indazol-2-yl]-1-piperidyl]ethanol]	< 0.1 µM	–	0.1 to 1 µM
Cc1cn2nc(-c3cc(O)c4nn(C5CCNCC5)cc4c3)cc(C)c2n1 [Compound 156, 5-(2,8-dimethylimidazo[1,2-b]pyridazin-6-yl)-2-(piperidin-4-yl)-2H-indazol-7-ol]	1 to 10 µM	1 to 10 µM	–
